Reference: patent US20100267561A1, “HERBICIDAL PYRIDAZINONE DERIVATIVES” (priority 2007, published 2010)

Tests used:
Assay type in all cases: in vivo
[1] = system: canola (Brassica rapa); test: Test C pre-/postemergence plant response
How it was run: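 Visual rating vs untreated controls, 0 (no effect) to 100 (complete control), after 15–25 days in a controlled growth environment. Pre- and postemergence treatments; post plants at 1- to 4-leaf stage, 2–18 cm. Formulation: non-phytotoxic solvent mix plus surfactant.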

[2] = system: annual bluegrass (Poa annua); test: Test E pre-/postemergence plant response; settings: scale 0 to 100
Excerpt: (§1) Seeds of plant species selected from bermudagrass (Cynodon dactylon), Surinam grass (Brachiaria decumbens), large crabgrass (Digitaria sanguinalis), green foxtail (Setaria viridis), goosegrass (Eleusine indica), johnsongrass (Sorghum halepense), kochia (Kochia scoparia), pitted morningglory (Ipomoea lacunosa), purple nutsedge (Cyperus rotundus), common ragweed (Ambrosia elation), black mustard (Brassica nigra), guineagrass (Panicum maximum), dallisgrass (Paspalum dilatatum), barnyardgrass (Echinochloa crus-galli), southern (S.) sandbur (Cenchrus echinatus), common sowthistle (Sonchus oleraceous), prickly sida (Sida spinosa), Italian ryegrass (Lolium multiflorum), common purslane (Portulaca oleracea), broadleaf signalgrass (Brachiaria platyphylla), common groundsel (Senecio vulgaris), common chickweed (Stellaria media), Virginia (V.) dayflower (Commelina virginica), tropical (T.) spiderwort (Commelina benghalensis), annual bluegrass (Poa annua), naked crabgrass (Digitaria nuda), itchgrass (Rottboellia cochinchinensis), quackgrass (Elytrigia repens), Canada horseweed (Conyza canadensis), field bindweed (Convolvulus arvensis), spanishneedles (Bidens bipinnata), common mallow (Malva sylvestris) and Russian thistle (Salsola kali) were planted and treated preemergence with test chemicals formulated in a non-phytotoxic solvent mixture which included a surfactant. At the same time, plants selected from these weed species were treated with postemergence applications of some of the test chemicals formulated in the same manner. Plants ranged in height from 2 to 18 cm (1- to 4-leaf stage) for postemergence treatments.
(§2) Treated plants and controls were maintained in a greenhouse for 14 to 21 days, after which time all species were compared to controls and visually evaluated. Plant response ratings, summarized in Table E, are based on a scale of 0 to 100 where 0 is no effect and 100 is complete control. A dash (-) response means no test result.

[3] = system: barnyardgrass (Echinochloa crus-galli); test: Test E pre-/postemergence plant response; settings: scale 0 to 100
Excerpt: as §1, §2

[4] = system: broadleaf signalgrass (Brachiaria platyphylla); test: Test E pre-/postemergence plant response; settings: scale 0 to 100
Excerpt: as §1, §2

[5] = system: common mallow (Malva sylvestris); test: Test E pre-/postemergence plant response; settings: scale 0 to 100
Excerpt: as §1, §2

[6] = system: guineagrass (Panicum maximum); test: Test E pre-/postemergence plant response; settings: scale 0 to 100
Excerpt: as §1, §2

[7] = system: itchgrass (Rottboellia cochinchinensis); test: Test E pre-/postemergence plant response; settings: scale 0 to 100
Excerpt: as §1, §2

[8] = system: naked crabgrass (Digitaria nuda); test: Test E pre-/postemergence plant response; settings: scale 0 to 100
Excerpt: as §1, §2

[9] = system: pitted morningglory (Ipomoea lacunosa); test: Test E pre-/postemergence plant response; settings: scale 0 to 100
Excerpt: as §1, §2

[10] = system: quackgrass (Elytrigia repens); test: Test E pre-/postemergence plant response; settings: scale 0 to 100
Excerpt: as §1, §2

[11] = system: surinam grass (Brachiaria decumbens); test: Test E pre-/postemergence plant response; settings: scale 0 to 100
Excerpt: as §1, §2

[12] = Postemergence, 8 g ai/ha, scale 0 to 100, 0 no effect, 100 complete control
[13] = Postemergence, 16 g ai/ha, scale 0 to 100, 0 no effect, 100 complete control
[14] = Postemergence, 31 g ai/ha, scale 0 to 100, 0 no effect, 100 complete control
[15] = Postemergence, 62 g ai/ha, scale 0 to 100, 0 no effect, 100 complete control
[16] = Preemergence, 8 g ai/ha, scale 0 to 100 (0 no effect, 100 complete control)
[17] = Preemergence, 62 g ai/ha, scale 0 to 100, 0 no effect, 100 complete control
[18] = Preemergence, 16 g ai/ha, scale 0 to 100 (0 no effect, 100 complete control)
[19] = Preemergence, 31 g ai/ha, scale 0 to 100 (0 no effect, 100 complete control)

Cc1cc(-c2ccc(Cl)cc2)nn1-c1c(OC(=O)OCC(C)C)cnn(C)c1=O [Compound 57]
Plant response rating, Canola [1, 12]: 0 | Plant response rating, Canola [1, 13]: 0 | Plant response rating, Canola [1, 14]: 0 | Plant response rating, Canola [1, 15]: 0 | Plant response rating, Canola [1, 16]: 0 | Plant response rating, Canola [1, 17]: 0

Cc1cc(-c2ccc(Cl)cc2)nn1-c1c(OS(C)(=O)=O)cnn(C)c1=O [Compound 36]
Plant response rating, Bluegrass ([2]; 8 g ai/ha, Preemergence): 0 | Plant response rating, Bluegrass ([2]; 16 g ai/ha, Preemergence): 0 | Plant response rating, Bluegrass ([2]; 31 g ai/ha, Preemergence): 0 | Plant response rating, Bluegrass ([2]; 62 g ai/ha, Preemergence): 0 | Plant response rating, Bluegrass ([2]; Postemergence, 8 g ai/ha): 0 | Plant response rating, Bluegrass ([2]; Postemergence, 16 g ai/ha): 0 | Plant response rating, Bluegrass ([2]; Postemergence, 31 g ai/ha): 0 | Plant response rating, Bluegrass ([2]; Postemergence, 62 g ai/ha): 0 | Plant response rating, Barnyardgrass ([3]; 8 g ai/ha, Preemergence): 80 | Plant response rating, Barnyardgrass ([3]; 16 g ai/ha, Preemergence): 95 | Plant response rating, Barnyardgrass ([3]; 31 g ai/ha, Preemergence): 95 | Plant response rating, Barnyardgrass ([3]; 62 g ai/ha, Preemergence): 100 | Plant response rating, Barnyardgrass ([3]; Postemergence, 8 g ai/ha): 50 | Plant response rating, Barnyardgrass ([3]; Postemergence, 16 g ai/ha): 50 | Plant response rating, Barnyardgrass ([3]; Postemergence, 31 g ai/ha): 95 | Plant response rating, Barnyardgrass ([3]; Postemergence, 62 g ai/ha): 100 | Plant response rating, Signalgrass ([4]; 16 g ai/ha, Preemergence): 70 | Plant response rating, Signalgrass ([4]; 31 g ai/ha, Preemergence): 100 | Plant response rating, Signalgrass ([4]; 62 g ai/ha, Preemergence): 100 | Plant response rating, Signalgrass ([4]; Postemergence, 8 g ai/ha): 10 | Plant response rating, Signalgrass ([4]; Postemergence, 16 g ai/ha): 50 | Plant response rating, Signalgrass ([4]; Postemergence, 31 g ai/ha): 90 | Plant response rating, Signalgrass ([4]; Postemergence, 62 g ai/ha): 100 | Plant response rating, Mallow ([5]; 16 g ai/ha, Preemergence): 0 | Plant response rating, Mallow ([5]; 31 g ai/ha, Preemergence): 0 | Plant response rating, Mallow ([5]; 62 g ai/ha, Preemergence): 0 | Plant response rating, Mallow ([5]; Postemergence, 8 g ai/ha): 0 | Plant response rating, Mallow ([5]; Postemergence, 16 g ai/ha): 0 | Plant response rating, Mallow ([5]; Postemergence, 31 g ai/ha): 0 | Plant response rating, Mallow ([5]; Postemergence, 62 g ai/ha): 0 | Plant response rating, Guineagrass ([6]; 16 g ai/ha, Preemergence): 100 | Plant response rating, Guineagrass ([6]; 31 g ai/ha, Preemergence): 100 | Plant response rating, Guineagrass ([6]; 62 g ai/ha, Preemergence): 100 | Plant response rating, Guineagrass ([6]; Postemergence, 8 g ai/ha): 35 | Plant response rating, Guineagrass ([6]; Postemergence, 16 g ai/ha): 75 | Plant response rating, Guineagrass ([6]; Postemergence, 31 g ai/ha): 90 | Plant response rating, Guineagrass ([6]; Postemergence, 62 g ai/ha): 90 | Plant response rating, Itchgrass ([7]; 16 g ai/ha, Preemergence): 65 | Plant response rating, Itchgrass ([7]; 31 g ai/ha, Preemergence): 75 | Plant response rating, Itchgrass ([7]; 62 g ai/ha, Preemergence): 90 | Plant response rating, Itchgrass ([7]; Postemergence, 8 g ai/ha): 0 | Plant response rating, Itchgrass ([7]; Postemergence, 16 g ai/ha): 40 | Plant response rating, Itchgrass ([7]; Postemergence, 31 g ai/ha): 50 | Plant response rating, Itchgrass ([7]; Postemergence, 62 g ai/ha): 60 | Plant response rating, Crabgrass, Naked ([8]; 8 g ai/ha, Preemergence): 90 | Plant response rating, Crabgrass, Naked ([8]; 16 g ai/ha, Preemergence): 100 | Plant response rating, Crabgrass, Naked ([8]; 31 g ai/ha, Preemergence): 100 | Plant response rating, Crabgrass, Naked ([8]; 62 g ai/ha, Preemergence): 100 | Plant response rating, Crabgrass, Naked ([8]; Postemergence, 8 g ai/ha): 40 | Plant response rating, Crabgrass, Naked ([8]; Postemergence, 16 g ai/ha): 60 | Plant response rating, Crabgrass, Naked ([8]; Postemergence, 31 g ai/ha): 90 | Plant response rating, Crabgrass, Naked ([8]; Postemergence, 62 g ai/ha): 98 | Plant response rating, Morningglory ([9]; 16 g ai/ha, Preemergence): 0 | Plant response rating, Morningglory ([9]; 31 g ai/ha, Preemergence): 0 | Plant response rating, Morningglory ([9]; 62 g ai/ha, Preemergence): 0 | Plant response rating, Morningglory ([9]; Postemergence, 8 g ai/ha): 0 | Plant response rating, Morningglory ([9]; Postemergence, 16 g ai/ha): 0 | Plant response rating, Morningglory ([9]; Postemergence, 31 g ai/ha): 0 | Plant response rating, Morningglory ([9]; Postemergence, 62 g ai/ha): 0 | Plant response rating, Quackgrass ([10]; 16 g ai/ha, Preemergence): 20 | Plant response rating, Quackgrass ([10]; 31 g ai/ha, Preemergence): 50 | Plant response rating, Quackgrass ([10]; 62 g ai/ha, Preemergence): 70 | Plant response rating, Quackgrass ([10]; Postemergence, 8 g ai/ha): 0 | Plant response rating, Quackgrass ([10]; Postemergence, 16 g ai/ha): 0 | Plant response rating, Quackgrass ([10]; Postemergence, 31 g ai/ha): 30 | Plant response rating, Quackgrass ([10]; Postemergence, 62 g ai/ha): 35 | Plant response rating, Surinam Grass ([11]; 16 g ai/ha, Preemergence): 95 | Plant response rating, Surinam Grass ([11]; 31 g ai/ha, Preemergence): 100 | Plant response rating, Surinam Grass ([11]; 62 g ai/ha, Preemergence): 100 | Plant response rating, Surinam Grass ([11]; Postemergence, 8 g ai/ha): 65 | Plant response rating, Surinam Grass ([11]; Postemergence, 16 g ai/ha): 65 | Plant response rating, Surinam Grass ([11]; Postemergence, 31 g ai/ha): 80 | Plant response rating, Surinam Grass ([11]; Postemergence, 62 g ai/ha): 100

Cc1cn(-c2ccc(Cl)cc2)nc1-c1c(O)cnn(C)c1=O [Compound 30, 4-[1-(4-chlorophenyl)-4-methyl-1H-pyrazol-3-yl]-5-hydroxy-2-methyl-3(2H)-pyridazinone]
Plant response rating, Canola [1, 16]: 0 | Plant response rating, Canola [1, 18]: 0 | Plant response rating, Canola [1, 19]: 0 | Plant response rating, Canola [1, 17]: 0

CCc1cc(-c2ccc(Cl)c(Cl)c2)nn1-c1c(O)cnn(C)c1=O [Compound 20]
Plant response rating, Canola [1, 12]: 0 | Plant response rating, Canola [1, 13]: 0 | Plant response rating, Canola [1, 14]: 0 | Plant response rating, Canola [1, 15]: 0

CCc1cc(-c2ccc(F)cc2)nn1-c1c(O)cnn(C)c1=O [Compound 25]
Plant response rating, Canola [1, 12]: 0 | Plant response rating, Canola [1, 13]: 0 | Plant response rating, Canola [1, 14]: 0 | Plant response rating, Canola [1, 15]: 0 | Plant response rating, Canola [1, 16]: 0 | Plant response rating, Canola [1, 18]: 0 | Plant response rating, Canola [1, 19]: 0 | Plant response rating, Canola [1, 17]: 0

CCc1cc(-c2ccc(Cl)cc2)nn1-c1c(OC(=O)OC(C)C)cnn(C)c1=O [Compound 41]
Plant response rating, Canola [1, 16]: 0 | Plant response rating, Canola [1, 18]: 0 | Plant response rating, Canola [1, 19]: 0 | Plant response rating, Canola [1, 17]: 0

Cn1ncc(O)c(-c2nn(-c3ccc(Cl)cc3)cc2Cl)c1=O [Compound 28]
Plant response rating, Canola [1, 16]: 0 | Plant response rating, Canola [1, 18]: 0 | Plant response rating, Canola [1, 19]: 0 | Plant response rating, Canola [1, 17]: 0

CCc1c(C)c(-c2ccc(Cl)cc2)nn1-c1c(O)cnn(C)c1=O [Compound 26, 4-[3-(4-chlorophenyl)-5-ethyl-4-methyl-1H-pyrazol-1-yl]-5-hydroxy-2-methyl-3(2H)-pyridazinone]
Plant response rating, Canola [1, 12]: 0 | Plant response rating, Canola [1, 13]: 0 | Plant response rating, Canola [1, 14]: 0 | Plant response rating, Canola [1, 15]: 0 | Plant response rating, Canola [1, 19]: 0 | Plant response rating, Canola [1, 17]: 0
